The text below walks through data of patent publication US9624209B2, “Substituted phenylureas and phenylamides as vanilloid receptor ligands” (Gruenenthal GmbH, priority 2009, dated 2017).

T1 sequence (Q8NER1 whole entry): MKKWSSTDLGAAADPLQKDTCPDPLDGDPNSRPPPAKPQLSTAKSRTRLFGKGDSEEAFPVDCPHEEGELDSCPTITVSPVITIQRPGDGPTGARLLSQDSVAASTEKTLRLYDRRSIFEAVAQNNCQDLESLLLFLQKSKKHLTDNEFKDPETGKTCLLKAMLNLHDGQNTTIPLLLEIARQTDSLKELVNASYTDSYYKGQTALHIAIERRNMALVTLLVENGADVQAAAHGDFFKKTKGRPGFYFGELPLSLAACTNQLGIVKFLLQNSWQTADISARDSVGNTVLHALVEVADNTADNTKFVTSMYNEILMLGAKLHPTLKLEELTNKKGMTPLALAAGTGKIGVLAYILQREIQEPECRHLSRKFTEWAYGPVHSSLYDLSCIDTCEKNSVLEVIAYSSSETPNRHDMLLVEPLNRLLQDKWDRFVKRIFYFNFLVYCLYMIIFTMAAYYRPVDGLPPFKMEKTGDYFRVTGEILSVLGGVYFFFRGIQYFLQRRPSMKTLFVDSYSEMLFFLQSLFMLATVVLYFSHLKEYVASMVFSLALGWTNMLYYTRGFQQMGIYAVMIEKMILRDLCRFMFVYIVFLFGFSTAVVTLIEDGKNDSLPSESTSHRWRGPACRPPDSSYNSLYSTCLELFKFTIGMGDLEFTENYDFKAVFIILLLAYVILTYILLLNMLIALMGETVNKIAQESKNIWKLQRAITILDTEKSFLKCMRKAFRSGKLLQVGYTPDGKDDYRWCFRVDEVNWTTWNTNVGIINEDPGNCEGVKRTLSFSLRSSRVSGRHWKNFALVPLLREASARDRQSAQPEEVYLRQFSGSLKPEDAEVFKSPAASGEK

The first experiment addresses T1, vanilloid receptor 1 (VR1/TRPV1 receptor) (Homo sapiens, UniProt Q8NER1).
T1 construct: expressed in transfected cells; host or cells: CHO K1 cells (ECACC), stably transfected
The experiment is described as follows: VR1/TRPV1 receptor affinity, capsaicin stimulus (human). It counts as cell-based, human being. Also on record: key to (f) Ki (human being) [nM] Cap: result in words: AG=agonist; pAG=partial agonist; NE=no effect. To be noted: @ 5 μM, Tables 8-12, read-out: (f) Ki (human being) [nM] Cap: inhibition (as a percentage).
What is called inhibition is the change of the read-out against control, counted positive when it falls. For `O=C(NCc1cc(C(F)(F)F)nn1-c1cccc(F)c1)Nc1ccc(N2CC(O)C2)c(F)c1` [Example C9, 1-[3-Fluoro-4-(3-hydroxy-azetidin-1-yl)-phenyl]-3-[[2-(3-fluorophenyl)-5-(trifluoromethyl)-2H-pyrazol-3-yl]-methyl]-urea], the inhibition at 5 µM amounted to 50%.

`CN(C)Cc1ccc(NC(=O)NCc2cc(C(F)(F)F)nn2-c2cccc(Cl)c2)cc1F` [Example B38, 1-[[2-(3-Chlorophenyl)-5-(trifluoromethyl)-2H-pyrazol-3-yl]-methyl]-3-[4-(dimethylaminomethyl)-3-fluoro-phenyl]-urea]: the inhibition at 5 µM stood at 18%.

As for `CC(C(=O)NCc1cc(C(F)(F)F)nn1-c1ccc(F)c(F)c1)c1ccc(N2CCCS2(=O)=O)c(F)c1` (stereo not drawn) [Example C3, N-[[2-(3,4-Difluoro-phenyl)-5-(trifluoromethyl)-2H-pyrazol-3-yl]-methyl]-2-[4-(1,1-dioxo-[1,2]thiazolidin-2-yl)-3-fluoro-phenyl]-propionamide], the inhibition at 5 µM is 54%.

As for `CN(C(=O)Nc1ccc(C(=O)NC2CCOCC2)c(F)c1)c1cc(C(F)(F)F)nn1-c1cccc(Cl)c1` [Example E22, 4-[[[2-(3-Chlorophenyl)-5-(trifluoromethyl)-2H-pyrazol-3-yl]-methyl-carbamoyl]amino]-2-fluoro-N-tetrahydro-pyran-4-yl-benzamide], the inhibition at 5 µM stood at 49%.

The experiment is the same for the next values; noted with them: Tables 8-12.
For `CC(=O)NCc1ccc(C(C)C(=O)NCc2cc(C(C)(C)C)nn2-c2cccc(Cl)c2)cc1F` (stereo not drawn) [Example B67, 2-[4-(Acetylamino-methyl)-3-fluoro-phenyl]-N-[[5-tert-butyl-2-(3-chlorophenyl)-2H-pyrazol-3-yl]-methyl]-propionamide], the “(f) Ki (human being) [nM] Cap: result in words” value is “AG”.

The experiment is the same for the next values; noted with them: Tables 8-12, read-out: (f) Ki (human being) [nM] Cap.
A word on the Ki: it is the equilibrium dissociation constant of an inhibitor or competing ligand from its target. Turning to `NS(=O)(=O)NCc1ccc(NC(=O)NCc2cc(C(F)(F)F)nn2-c2ccc(F)c(Cl)c2)cc1F` [Example B70, 1-[[2-(3-Chloro-4-fluoro-phenyl)-5-(trifluoromethyl)-2H-pyrazol-3-yl]-methyl]-3-[3-fluoro-4-[(sulfamoylamino)-methyl]-phenyl]-urea], the Ki was 14 nM.

For `CC(C)(C)c1cc(CNC(=O)Nc2ccc(CNS(N)(=O)=O)c(F)c2)n(-c2cccc(Cl)c2)n1` [Example B46, 1-[[5-tert-Butyl-2-(3-chlorophenyl)-2H-pyrazol-3-yl]-methyl]-3-[3-fluoro-4-[(sulfamoylamino)-methyl]-phenyl]-urea], the Ki is 9 nM.

Take `CC(C(=O)NCc1cc(C(F)(F)F)nn1-c1cccc(Cl)c1)c1ccc(CN)c(F)c1` (stereo not drawn) [Example B42, 2-[4-(Aminomethyl)-3-fluoro-phenyl]-N-[[2-(3-chlorophenyl)-5-(trifluoromethyl)-2H-pyrazol-3-yl]-methyl]-propionamide]: the Ki was determined as 46 nM.

Take `CCS(=O)(=O)NCc1ccc(C(C)C(=O)NCc2cc(C(C)(C)C)nn2-c2cccc(Cl)c2)cc1F` (stereo not drawn) [Example B16, N-[[5-tert-Butyl-2-(3-chlorophenyl)-2H-pyrazol-3-yl]-methyl]-2-[4-[[(ethylsulfonyl)amino]-methyl]-3-fluoro-phenyl]-propionamide]: the Ki came out at 2 nM.

In the case of `CC(C(=O)NCc1cc(C(C)(C)C)nn1-c1ccc(F)c(Cl)c1)c1ccc(CNS(C)(=O)=O)c(F)c1` (stereo not drawn) [Example B3, N-[[5-tert-Butyl-2-(3-chloro-4-fluoro-phenyl)-2H-pyrazol-3-yl]-methyl]-2-[3-fluoro-4-(methanesulfonamido-methyl)-phenyl]-propionamide], the Ki was 3 nM.

Turning to “4-[1-[[5-tert-Butyl-2-(3-chlorophenyl)-2H-pyrazol-3-yl]-methyl-carbamoyl]-ethyl]-N-(4-chlorophenyl)-2-fluoro-benzamide [Example E35]”, the Ki worked out at 2 nM.

As for `CC(C)(C)c1cc(CNC(=O)Nc2ccc(CNS(C)(=O)=O)c(F)c2)n(-c2cccc(C(F)(F)F)c2)n1` [Example B54, 1-[[5-tert-Butyl-2-[3-(trifluoromethyl)phenyl]-2H-pyrazol-3-yl]-methyl]-3-[3-fluoro-4-(methanesulfonamido-methyl)-phenyl]-urea], the Ki was 8 nM.
